A word on the solubility: it is the dissolved amount per volume that the medium holds.

Test system in one series: not listed separately
Put plainly: physchem.
Details: not given
The text has this:
Said saturated solutions were subsequently analyzed by HPLC to determine the agrochemical active component concentration. The samples were centrifuged and filtered twice through 1.6 and 0.45 μm filters to remove any extraneous material prior to analysis.
For each combination of agrochemical active component, a calibration curve was established to plot the instrumental response, e.g., the analytical signal, changes with the concentration of the agrochemical active component.
On to `Nc1c(Cl)c(F)nc(OCC(=O)O)c1Cl` [Fluroxypyr], for which the Solubility in saturation came out at 546.25 mg/mL.

The same series, now with this note: in n-butyl THF; saturated solution MT 181, HPLC, pure active ingredient.
Take `COC(=O)Nc1cccc(OC(=O)Nc2cccc(C)c2)c1` [Phenmidipham]: the Solubility in saturation stood at 35.66 mg/mL.

The same series, now with this note: in t-butyl THF; saturated solution MT 181, HPLC, pure active ingredient.
For the compound `COC(=O)Nc1cccc(OC(=O)Nc2cccc(C)c2)c1` [Phenmidipham], the Solubility in saturation is 37.11 mg/mL.

Still in this series, the particulars now being: organic solvent or mixture, thermodynamic from solid.
In the case of `OC(Cc1ccccc1Cl)(Cn1nc[nH]c1=S)C1(Cl)CC1` (stereo not shown) [Prothioconazole], the solubility worked out at 341 mg/mL.

Staying with this series, now noted: organic solvent or mixture, thermodynamic from solid, Solubility in saturation.
For the compound `Nc1c(Cl)c(F)nc(OCC(=O)O)c1Cl` [Fluroxypyr], the solubility worked out at 537 mg/mL.

For the compound `CC1(C)CCC(Cc2ccc(Cl)cc2)C1(O)Cn1cncn1` (stereo not shown) [Metconazole], the solubility came out at 210 mg/mL.

With `CC(COc1ccc(Oc2ccccc2)cc1)Oc1ccccn1` (stereo not shown) [Pyriproxyfen], the solubility turned out to be 631 mg/mL.

`CC(C)(C)C(O)(CCc1ccc(Cl)cc1)Cn1cncn1` (stereo not shown) [Tebuconazole]: the solubility was found to be 181 mg/mL.

Staying with this series, now noted: t-butyl THF, organic solvent or mixture, thermodynamic from solid, Solubility in saturation, in t-butyl THF; saturated solution MT 181, HPLC, pure active ingredient.
With `CC(C)(C)C(O)(CCc1ccc(Cl)cc1)Cn1cncn1` (stereo not shown) [Tebuconazole], the solubility came out at 188 mg/mL.

Test system in the next series: not listed separately
The series is described as follows: Hansen and Hildebrand solubility parameters.
Details: not given
The text has this: The Hansen solubility parameters are used for predicting if one material will dissolve in another and form a (homogeneous) solution.
Furthermore, solvents with similar Hansen solubility parameters will have similar solubility characteristics, including which agrochemical active components will and which agrochemical active components will not dissolve in the solvents.
`O=C1CCCCC1` [Cyclohexanone]: the “Hansen Solubility Parameters δd” value came out at 17.8 J/mL, the “Hansen Solubility Parameters δn” value is 5.1 J/mL, the “Hansen Solubility Parameters δp” value was found to be 6.3 J/mL and the “Hildebrand δ” value was 19.56 J/mL.

For `CCOC(C)=O` [Ethyl Acetate], the “Hansen Solubility Parameters δd” value is 15.8 J/mL, the “Hansen Solubility Parameters δn” value was 7.2 J/mL, the “Hansen Solubility Parameters δp” value was determined as 5.3 J/mL and the “Hildebrand δ” value is 18.15 J/mL.

For `CC1=CC(=O)CC(C)(C)C1` [Isophorone], the “Hansen Solubility Parameters δd” value worked out at 16.6 J/mL, the “Hansen Solubility Parameters δn” value was determined as 7.4 J/mL, the “Hansen Solubility Parameters δp” value stood at 8.2 J/mL and the “Hildebrand δ” value was determined as 19.94 J/mL.

On to `OCC1CCCO1` (stereo not shown) [THFA TetraHydroFurfurylAlcohol, TetraHydroFurfurylAlcohol], for which the “Hansen Solubility Parameters δd” value was found to be 17.8 J/mL, the “Hansen Solubility Parameters δn” value was 10.2 J/mL, the “Hansen Solubility Parameters δp” value worked out at 8.2 J/mL and the “Hildebrand δ” value stood at 22.09 J/mL.

On to `CCCCOCC1CCCO1` (stereo not shown) [n-butyl THF, 2-(butoxymetyl)tetrahydrofuraan], for which the “Hansen Solubility Parameters δd” value was determined as 16.47 J/mL, the “Hansen Solubility Parameters δn” value is 5.96 J/mL, the “Hansen Solubility Parameters δp” value came to 4.74 J/mL and the “Hildebrand δ” value came to 18.15 J/mL.

Turning to `CCCCOC(C)=O` [n-butyl acetate], the “Hansen Solubility Parameters δd” value was determined as 15.8 J/mL, the “Hansen Solubility Parameters δn” value was 6.3 J/mL, the “Hansen Solubility Parameters δp” value was determined as 3.7 J/mL and the “Hildebrand δ” value is 17.41 J/mL.

Take `Cc1ccc(C)cc1` [p-Xylène]: the “Hansen Solubility Parameters δd” value was found to be 17.6 J/mL, the “Hansen Solubility Parameters δn” value was determined as 3.1 J/mL, the “Hansen Solubility Parameters δp” value came to 1 J/mL and the “Hildebrand δ” value was 17.90 J/mL.

A further series relates to microorganisms of the inoculum.
Assay: not given
Details: not given
Turning to `CCCCOCC1CCCO1` (stereo not shown) [n-butyl THF, 2-(butoxymetyl)tetrahydrofuraan], the “inhibition of the microorganisms of the inoculum” value is reported as “non-inhibitory”.

In a further series the test system is Lactuca sativa. The series is described as follows: Phytotoxicity study on lettuce. The class given is in vivo. Conditions: lettuce Lucrecia RZ sprayed until saturation at 1%, 2%, 5% and 10%; 5 and 10 days after spraying. As for the experimental part: The aim of this experiment is to determine if these solvents can cause phytotoxicity on lettuce at different concentrations. Lettuce of the Lucrecia RZ variety was sown in potting soil and transplanted into 3L pots. For each of the solvents, four concentrations were tested: 1%, 2%, 5% and 10%. A control (water) was also performed. […] Fifteen replicates per treatment were conducted. A monitoring of the appearance of potential spots due to phytotoxicity is carried out 5 days and 10 days after spraying.
For the compound `CCCCOCC1CCCO1` (stereo not shown) [n-butyl THF, 2-(butoxymetyl)tetrahydrofuraan], the “phytotoxicity on salads (spots)” value is recorded as “absence of phytotoxicity”.

For the compound `CC(C)(C)OCC1CCCO1` (stereo not shown) [t-butyl THF, 2-(tert-Butoxymethyl)tetrahydrofuran], the “phytotoxicity on salads (spots)” value is “absence of phytotoxicity”.
